Assay results published in ChEMBL document CHEMBL4715874, “In Vivo Screening of Xanthones from Garcinia oligantha Identified Oliganthin H as a Novel Natural Inhibitor of Convulsions” (J Nat Prod, 2020).
The source made the active and inactive calls. The calls are words filed in the database; no cut-off is given here.

Columns and labels:
[1] = Toxicity in AB zebra fish larvae assessed as mortality at >= 6.2 uM after 6 hrs relative to control; design: species or system Danio rerio; details: zebrafish
[2] = Neurotoxicity in AB zebra fish larvae at 1.5 uM after 6 hrs; format: toxicity, Danio rerio; details: zebrafish
[3] = Toxicity in AB zebra fish larvae assessed as maximum tolerated concentration after 6 hrs; design: species or system Danio rerio; details: zebrafish, read-out: MTC
[4] = Neurotoxicity in AB zebra fish larvae assessed as decrease in total swimming distance at <= MTC after 6 hrs; format: toxicity, Danio rerio; details: zebrafish
Danio rerio [5] = species on record: Danio rerio; experiment: Anticonvulsant activity in AB zebra fish larvae assessed as reduction in PTZ-induced convulsant behavior by measuring swimming distance at 0.7 uM pretreated for 6 hrs followed by PTZ-stimulation and measured every 5 mins for 1 hr; format: functional, organism-based; details: time 7.0 hrs
Danio rerio [6] = species on record: Danio rerio; experiment: Anticonvulsant activity in AB zebra fish larvae assessed as reduction in PTZ-induced convulsant behavior by measuring lowest observed effect concentration pretreated for 6 hrs followed by PTZ-stimulation and measured every 5 mins for 1 hr; format: functional; details: time 7 hrs
[7] = Ratio of MTC for toxicity in AB zebra fish larvae to lowest observed effect concentration for Anticonvulsant activity in AB zebra fish larvae assessed as reduction in PTZ-induced convulsant behavior; design: species or system Danio rerio

## CC(C)=CCC12CC(C(C)(C)O)OC1=C(O)C(=O)c1oc3c4c(cc(O)c3c(=O)c12)OC(C)(C)C=C4 (configuration not stated)
[1]
  mortality at 6 h: 100%
[2]
  Activity: Toxic
[3]
  MNTC at 6 h: 700 nM
[4]
  Activity: Non-Toxic
Danio rerio [5]
  Activity: Active
Danio rerio [6]
  Activity: 0.7 µM
[7]
  Ratio: 1
